From US20100210682A1, “Repeated Dosing of TRPV1 Antagonists” (ABBOTT LABORATORIES, priority 2009, published 2010)

How the values were obtained:
[1] = target: TRPV1 receptor (Homo sapiens, UniProt Q8NER1); experiment: Block of TRPV1 receptor activation by capsaicin in vitro; assay type: biochemical
[2] = system: MIA-induced osteoarthritic rats; experiment: Osteoarthritic pain model in rats (MIA), weight bearing difference; assay type: in vivo; conditions: po, 96 h; rat, p.o., acute dosing, 4 days following MIA injection; read-out: ED50, reversal of difference in weight bearing
Method: Unilateral knee joint osteoarthritis was induced in the rats by a single intraarticular (i.a.) injection of sodium monoiodoacetate (MIA) (Sigma, St. Louis, Mo.) (3 mg in 0.05 mL sterile isotonic saline) into the joint cavity using a 26 G needle under light (2-4%) halothane (Halocarbon Laboratories, River Edge, N.J.) anesthesia [Bove S E, Calcaterra S L, Brooker R M, Huber C M, Guzman R E, Juneau P L, et al. Weight bearing as a measure of disease progression and efficacy of anti-inflammatory compounds in a model of monosodium iodoacetate-induced osteoarthritis. Osteoarthritis Cartilage 2003; 11:821-30]. […]
MIA-induced nociception can be assessed by measuring differences in weight bearing (WBD) or decrease in grip force (GF) several days to weeks following MIA injection [Bove S E, Calcaterra S L, Brooker R M, Huber C M, Guzman R E, Juneau P L, et al. Weight bearing as a measure of disease progression and efficacy of anti-inflammatory compounds in a model of monosodium iodoacetate-induced osteoarthritis. […]
Differences in weight bearing on the injured vs uninjured hind limb were assessed by placing the animals in an Incapacitance Tester (Linton, Stoelting, Wood Dale, Ill.). […] The animals were allowed to acclimate for approximately 30 s before weight-bearing readings (measured in grams) were recorded. […]

TRPV1 receptor, sequence (Q8NER1 whole entry): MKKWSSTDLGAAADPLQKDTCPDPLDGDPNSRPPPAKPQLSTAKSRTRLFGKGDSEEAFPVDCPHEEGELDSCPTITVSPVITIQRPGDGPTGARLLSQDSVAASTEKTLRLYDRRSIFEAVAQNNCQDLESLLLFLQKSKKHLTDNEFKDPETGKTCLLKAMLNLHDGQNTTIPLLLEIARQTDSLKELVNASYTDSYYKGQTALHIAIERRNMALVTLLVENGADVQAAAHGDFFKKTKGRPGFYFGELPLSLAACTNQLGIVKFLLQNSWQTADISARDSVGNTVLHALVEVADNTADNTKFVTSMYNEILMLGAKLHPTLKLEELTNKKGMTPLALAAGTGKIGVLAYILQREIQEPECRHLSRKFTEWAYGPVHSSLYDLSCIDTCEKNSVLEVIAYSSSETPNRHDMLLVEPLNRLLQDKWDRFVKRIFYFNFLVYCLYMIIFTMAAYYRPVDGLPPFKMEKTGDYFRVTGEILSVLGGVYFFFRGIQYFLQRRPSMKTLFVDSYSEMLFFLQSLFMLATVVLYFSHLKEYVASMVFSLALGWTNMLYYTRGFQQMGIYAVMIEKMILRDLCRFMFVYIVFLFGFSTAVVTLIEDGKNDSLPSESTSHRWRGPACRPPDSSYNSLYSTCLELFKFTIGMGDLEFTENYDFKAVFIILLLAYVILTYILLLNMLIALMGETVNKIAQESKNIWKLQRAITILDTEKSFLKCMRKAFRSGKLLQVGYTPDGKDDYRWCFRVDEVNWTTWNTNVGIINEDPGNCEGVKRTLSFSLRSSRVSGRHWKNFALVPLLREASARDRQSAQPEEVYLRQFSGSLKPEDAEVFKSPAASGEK

ability to block TRPV1 receptor activation by capsaicin in vitro [1]: potent
Structure (SMILES): CC(C)(C)c1ccc2c(c1)CC[C@H]2NC(=O)Nc1cccc2[nH]ncc12 [Compound A, N-[(1R)-5-tert-butyl-2,3-dihydro-1H-inden-1-yl]-N′-1H-indazol-4-ylurea]
ED50 [2]: 30 µmol/kg
